Measured values published in patent US20030166692A1, “Composition useful as anticancer drug and radiosensitizer” (PHARMGENIA CO., LTD. of Developmental Genetics Laboratory,, priority 2002, published 2003).

Columns and labels:
[1] = tested on: human NCI-H460 lung cancer cell line; experiment: MTT survival of NCI-H460 cancer cells after treatment with the compound of formula I; assay type: cell-based; settings: for The survival rate of cancer cells: MTT, relative to DMSO control
Experimental: (§1) In this Example, the effect of the compound of formula I as an anticancer agent was evaluated in vitro using human NCI-H460 and SNU638 cancer cell lines.
(§2) The inventor purchased the compound of formula I from ChemBridge Corporation (San Diego, Calif.). Human NCI-H460 lung cancer cell line was obtained from ATCC (American Type Culture Collection), while human SNU638 gastric cancer cell line from KCLB (Korean Cell Line Bank).
(§3) Under […] at 37° C., the human NCI-H460 and SNU638 cancer cell lines were incubated for 4 days in RPMI1640 culture medium (GIBCO/BRL, Grand Island, N.Y.) containing 10% calf fetus serum, penicillin 100 units/ml, and streptomycin 100 μg/ml.
(§4) In the case of the NCI-H460 cell line, the compound of formula I was dissolved in DMSO (dimethyl sulfoxide) in order to make its concentration 0.1 ng/ml, 1 ng/ml, 10 ng/ml, 100 ng/ml, 1,000 ng/ml and 10,000 ng/ml, respectively. During incubation, the NCI-H460 cells were treated with each concentration of the compound of formula I, respectively.
(§5) Then, any surviving cancer cells were dyed with MTT [3-(4,5-dimethylthiazol-2-yl)-2,5-diphenyltetrazolium bromide] and quantified at 540 nm with a microplate reader.
(§6) Following Tables 1 and 2, and FIGS. 1 and 2, respectively show the survival rate of cancer cells, based on relative absorbance rate in reference to control (i.e. cancer cells treated with DMSO only). […] When treated with 1,000 ng/ml of the compound of formula I, about 80% (in the case of the NCI-H460 cell line) and 94% (in the case of the SNU638 cell line) of cancer cells were killed.

[2] = tested on: human SNU638 gastric cancer cell line; experiment: MTT survival of SNU638 cancer cells after treatment with the compound of formula I; assay type: cell-based; settings: for The survival rate of cancer cells: MTT, relative to DMSO control
Experimental: as §1, §2, §3
as §4, with “SNU638” for “NCI-H460”, “DMSO” for “DMSO (dimethyl sulfoxide)”, “concentration” for “concentration 0.1 ng/ml,”
as §5, §6

[3] = tested on: human NCI-H460 lung cancer cell line; experiment: Colony formation of NCI-H460 cells, compound followed by γ-irradiation; assay type: cell-based; settings: for The survival rate of cancer cells (combination therapy): colony formation vs un-irradiated compound-treated cells
Experimental: (§7) Using the same method as described in Example 1, human A549 and NCI-H460 lung cancer cell lines (obtained from ATCC) were incubated in RPMI1640 culture medium.
(§8) Then, cancer cells were collected and placed into 60 mm (in diameter) petri dishes, 300 cells per petri dish. After the cancer cells were incubated in water-containing CO2 incubator at 37° C. for 24 hours, 1 ng/ml and 0.1 ng/ml of the compound of formula I dissolved in DMSO were treated to human NCI-H460 and A549 cells, respectively. Four (4) hours later, the cancer cells were irradiated with a different amount of γ-rays using ^137Cs γ-rays source (Atomic Energy of Canada, Ltd., Canada). After cultivated for 10 days, the colonies were dyed with 1% methylene blue. Colonies having diameters of 200 μm or more were counted using Colony Counter (Imaging Products, Chantilly, Va.).
(§9) The results regarding colony formation are shown in the following Tables 3 and 4, and FIGS. 3 and 4.

[4] = tested on: human A549 lung cancer cell line; experiment: Colony formation of A549 cells, compound followed by γ-irradiation; assay type: cell-based; settings: for The survival rate of cancer cells (combination therapy): colony formation vs un-irradiated compound-treated cells
Experimental: as §7, §8, §9

[5] = tested on: NCI-H460 cells transplanted into mice; experiment: Tumor volume of NCI-H460 cells transplanted into mice; assay type: in vivo
Experimental: Six (6) week old mice of BALB/cAnNCrj-nu/nu strain, which were obtained from Chales River Japan Inc. (Japan), were subcutaneously injected lung cancer cells (NCI-H460 cell line, 5×10^6 cells) to develop tumors.
Mice were selected whose tumor volume reached 120 mm^3, and subdivided into 4 groups each having 5 mice: Group 1 (control, treated with DMSO); Group 2 (treated only with 10 mg/kg of the compound of formula I); Group 3 (treated only with 5 Gy of irradiation); and Group 4 (treated with 10 mg/kg of the compound of formula I and 5 Gy of irradiation).
Five (5) times with 5 day intervals between each time, DMSO or the compound of formula I was subcutaneously injected to the mice of Groups 1, 2 and 4, and γ-rays were irradiated to the mice of Groups 3 and 4.
The compound of formula I was dissolved in DMSO to make its concentration 5 mg/ml. 40 μl of DMSO and the compound of formula I each were administered to Groups 1, 2 and 4, respectively. The mice of Group 4 were subcutaneously injected with the compound of formula I, and 4 hours later followed by irradiation. The change of tumor volume in each Group was observed 11 times with 3 to 5 days of interval for 42 days.

CSC(=S)N/N=C(\c1ccccc1)c1ccccn1 [compound of formula I, N′-(phenyl-pyridin-2-yl-methylene)-hydrazine carbodithioic acid methyl ester]
The survival rate of cancer cells ([1]; 0.1 ng/ml): 90.2% | cancer cells killed ([1]; 1 ng/ml): about 12% | The survival rate of cancer cells ([1]; 1 ng/ml): 87.7% | The survival rate of cancer cells ([1]; 10 ng/ml): 51.3% | The survival rate of cancer cells ([1]; 100 ng/ml): 36.6% | cancer cells killed ([1]; 1,000 ng/ml): about 80% | The survival rate of cancer cells ([1]; 1,000 ng/ml): 20% | The survival rate of cancer cells ([1]; 10,000 ng/ml): 2% | cancer cells killed ([2]; 1 ng/ml): ~35% | The survival rate of cancer cells ([2]; 1 ng/ml): 64.46% | The survival rate of cancer cells ([2]; 10 ng/ml): 53.22% | The survival rate of cancer cells ([2]; 100 ng/ml): 46.41% | cancer cells killed ([2]; 1,000 ng/ml): ~94% | The survival rate of cancer cells ([2]; 1,000 ng/ml): 5.71% | The survival rate of cancer cells ([2]; 10,000 ng/ml): 3.87% | The survival rate of cancer cells (combination therapy) ([3]; 1 ng/ml compound then 1 Gy): 37.5% | The survival rate of cancer cells (combination therapy) ([3]; 1 ng/ml compound then 3 Gy): 9% | The survival rate of cancer cells (combination therapy) ([3]; 1 ng/ml compound then 5 Gy): 1% | The survival rate of cancer cells (combination therapy) ([3]; 1 ng/ml compound then 7 Gy): 0.01% | cancer cells killed ([3]; 1 ng/ml followed by 1 Gy, in comparison with 1 ng/ml and no irradiation): 62.5% | enhanced anticancer effect in comparison with 1 Gy of irradiation ([3]; 1 ng/ml in combination with 1 Gy): 27.5% | radio-enhanced cancer treatment effect ([3]; 1 Gy or more irradiated, 1 ng/ml): significantly effective | The survival rate of cancer cells (combination therapy) ([4]; 0.1 ng/ml compound then 1 Gy): 53% | The survival rate of cancer cells (combination therapy) ([4]; 0.1 ng/ml compound then 3 Gy): 10% | The survival rate of cancer cells (combination therapy) ([4]; 0.1 ng/ml compound then 5 Gy): 2% | The survival rate of cancer cells (combination therapy) ([4]; 0.1 ng/ml compound then 7 Gy): 1% | cancer cells killed ([4]; 0.1 ng/ml followed by 1 Gy, in comparison with 0.1 ng/ml and no irradiation): 47% | increased anticancer effect in comparison with 1 Gy of irradiation only ([4]; 0.1 ng/ml in combination with 1 Gy): 32% | radio-enhanced cancer treatment effect ([4]; 1 Gy or more irradiated, 0.1 ng/ml): significantly effective | tumor volume ([5]; Combination: 10 mg/kg s.c. + 5 Gy irradiation, 10 days): 133 mm^3 | tumor volume ([5]; Combination: 10 mg/kg s.c. + 5 Gy irradiation, 13 days): 268 mm^3 | tumor volume ([5]; Combination: 10 mg/kg s.c. + 5 Gy irradiation, 18 days): 379 mm^3 | tumor volume ([5]; Combination: 10 mg/kg s.c. + 5 Gy irradiation, 21 days): 539 mm^3 | tumor volume ([5]; Combination: 10 mg/kg s.c. + 5 Gy irradiation, 24 days): 710 mm^3 | tumor volume ([5]; Combination: 10 mg/kg s.c. + 5 Gy irradiation, 26 days): 760 mm^3 | tumor volume ([5]; Combination: 10 mg/kg s.c. + 5 Gy irradiation, 29 days): 862 mm^3 | tumor volume ([5]; Combination: 10 mg/kg s.c. + 5 Gy irradiation, 33 days): 950 mm^3 | tumor volume ([5]; Combination: 10 mg/kg s.c. + 5 Gy irradiation, 36 days): 1,086 mm^3 | tumor volume ([5]; Combination: 10 mg/kg s.c. + 5 Gy irradiation, 39 days): 1,079 mm^3 | tumor volume ([5]; Combination: 10 mg/kg s.c. + 5 Gy irradiation, 42 days): 1,164 mm^3 | increase rate of the tumor volume ([5]; Group 2 (compound only, 10 mg/kg) vs Group 1 (control)): much lower than in Group 1 | increase in tumor volume ([5]; Group 4 (compound + 5 Gy irradiation) compared to Group 3 (irradiation only)): little increase in tumor volume | tumor volume ([5]; compound only, 10 mg/kg s.c., 10 days): 179 mm^3 | tumor volume ([5]; compound only, 10 mg/kg s.c., 13 days): 258 mm^3 | tumor volume ([5]; compound only, 10 mg/kg s.c., 18 days): 614 mm^3 | tumor volume ([5]; compound only, 10 mg/kg s.c., 21 days): 923 mm^3 | tumor volume ([5]; compound only, 10 mg/kg s.c., 24 days): 1,274 mm^3 | tumor volume ([5]; compound only, 10 mg/kg s.c., 26 days): 1,766 mm^3 | tumor volume ([5]; compound only, 10 mg/kg s.c., 29 days): 2,211 mm^3 | tumor volume ([5]; compound only, 10 mg/kg s.c., 33 days): 2,759 mm^3 | tumor volume ([5]; compound only, 10 mg/kg s.c., 36 days): 3,374 mm^3 | tumor volume ([5]; compound only, 10 mg/kg s.c., 39 days): 3,787 mm^3 | tumor volume ([5]; compound only, 10 mg/kg s.c., 42 days): 4,133 mm^3
